Key:
[1] = 200 MBq; ref Afshar-Oromieh et al. [2016]; cited from earlier work
[2] = Stability of ^133La-PSMA radioconjugates in human serum, by radio-TLC; assay type: in vitro ADME; conditions: after 24 h in human serum, radio-TLC (Fig. 11)
[3] = as above; assay type: in vitro ADME; conditions: for stability in serum: ^133La-radioconjugate, up to / after 24 h; for HS stability 1 h / HS stability 4 h / HS stability 24 h: human serum/PBS pH 7, 37 °C, tested thrice
Protocol: Apparent molar activity (AMA) was quantified by titration with the macropa chelator in combination with radio-TLC. 3–10 µL [^133La]LaCl3 (4–7 MBq, approximately 10 MBq at EOB) were added to a buffered solution (ammonium acetate 200 mM, pH 6, total volume 100 µL) containing different chelator concentrations: 0.20 µM, 0.40 µM, 0.80 µM and 1.60 µM. These solutions were mixed at 500 rpm for 15 min at room temperature. The formed [^133La]La-macropa complex was analyzed using silica gel coated aluminum plates and developed with 50 mM EDTA as eluent. While the free lanthanum runs to the front, the complex remains at the start.
To assess the serum stability of both radiolabeled compounds, 75 µL of the ^133La-PSMA radioconjugates, accounting for ca. 50 MBq ^133La, were added to 75 µL of PBS buffer pH 7 and 150 µL of human serum and mixed at 500 rpm for 24 h at 37 °C. Silica gel plates were spotted after 1 h, 4 h and 24 h to evaluate the evolution of the complex stability. Each ^133La-PSMA radioligand and its molar activity was tested thrice.

## O=C([O-])CN(CCN(CC(=O)[O-])Cc1cc(CCC(=O)NCCCCCC(=O)NCCCC[C@H](NC(=O)N[C@@H](CCC(=O)O)C(=O)O)C(=O)O)ccc1[O-])Cc1cc(CCC(=O)O)ccc1[O-].[68Ga+3].[OH3+] [[^68Ga]Ga-PSMA-11]
[1]
  effective dose: 4.7 mSv

## [133La+3].[Cl-].[Cl-].[Cl-] [[^133La]LaCl3]
[2]
  free [^133Ba]Ba^2+ as share of the total radioactivity: 1.1%

## O=C(O)CC[C@H](NC(=O)N[C@@H](CCCCNC(=O)[C@H](Cc1ccc2ccccc2c1)NC(=O)[C@H]1CC[C@H](CNC(=O)CN2CCN(CC(=O)O)CCN(CC(=O)O)CCN(CC(=O)O)CC2)CC1)C(=O)O)C(=O)O [[^133La]La-PSMA-617]
[3]; molar activity not given
  stability in serum: > 98.5 ± 0.3%
[3]; molar activity 40 GBq/µmol
  HS stability 1 h: 99.37 ± 0.12%
  HS stability 4 h: 99.40 ± 0.01%
  HS stability 24 h: 97.37 ± 0.17%
[3]; molar activity 80 GBq/µmol
  HS stability 1 h: 99.57 ± 0.12%
  HS stability 4 h: 99.60 ± 0.08%
  HS stability 24 h: 98.5 ± 0.3%

## O=C(O)CCC(NC(=O)NC(CCCCNC(=O)C(Cc1ccc2ccccc2c1)NC(=O)C1CCC(CNC(=O)CCCCn2cc(COc3cc(CN4CCOCCOCCN(Cc5cccc(C(=O)O)n5)CCOCCOCC4)nc(C(=O)O)c3)nn2)CC1)C(=O)O)C(=O)O (centres unmarked) [[^133La]La-mcp-M-PSMA]
[3]; molar activity not stated in the sentence
  stability in serum: > 99%
[3]; molar activity not stated in the sentence, listed as mcp-M-PSMA
  stability in serum: > 99.20 ± 0.08%
[3]; molar activity 40 GBq/µmol
  HS stability 1 h: 100 ± 0%
  HS stability 4 h: 100 ± 0%
  HS stability 24 h: 99.57 ± 0.25%
[3]; molar activity 80 GBq/µmol
  HS stability 1 h: 99.80 ± 0.01%
  HS stability 4 h: 99.83 ± 0.08%
  HS stability 24 h: 99.20 ± 0.08%
